{"source": "PubChem BioAssay AID1963444", "about": "(Molecular Pharmacology Branch, DTP, NCI, 2024)", "system": "HSSY-II complex spheroid growth, percent test/control", "test": "Anticancer human tumor HSSY-II cell line growth inhibition [Asc];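 for all read-outs here: spheroids exposed to drug for 7 days before reading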", "settings": "for IC50: curve of first compound; for viability, T/C: stronger effect = lower value", "outline": "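Spheroid model: tumor line + HUVEC + hMSC. Single agents and combinations; top conc. at/near clinical Cmax (10 microM if undetermined), half-log dilutions. DMSO stocks at 800-fold test concentration.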", "data": [{"smiles": "C#Cc1c(F)ccc2cc(O)cc(-c3ncc4c(N5CC6CCC(C5)N6)nc(OCC56CCCN5CC(F)C6)nc4c3F)c12", "note": "(stereo not given) + Cc1c(S(C)(=O)=O)c(-c2cc(F)cc(N3CCN(c4ccc(NS(=O)(=O)c5ccc(NC(CCN6CCC(C(=O)OCCCP(=O)(O)O)CC6)CSc6ccccc6)c(S(=O)(=O)C(F)(F)F)c5)cc4)CC3)c2)c(-c2ccc(Cl)cc2)n1C(C)C", "values": [{"measurement": "IC50", "setting": "second compound 0.1 µM", "result": 8.63, "unit": "µM"}, {"measurement": "IC50", "setting": "second compound 0.316 µM", "result": 6.03, "unit": "µM"}, {"measurement": "IC50", "setting": "second compound 1 µM", "result": 5.88, "unit": "µM"}, {"measurement": "IC50", "setting": "second compound 3.16 µM", "result": 5.43, "unit": "µM"}, {"measurement": "IC50", "setting": "second compound 10 µM", "result": 5.95, "unit": "µM"}, {"measurement": "viability, T/C", "setting": "second compound 0.1 µM, first compound 0.0316 µM", "result": 103, "unit": "%"}, {"measurement": "viability, T/C", "setting": "second compound 0.1 µM, first compound 0.1 µM", "result": 99.5, "unit": "%"}, {"measurement": "viability, T/C", "setting": "second compound 0.1 µM, first compound 0.316 µM", "result": 99.6, "unit": "%"}, {"measurement": "viability, T/C", "setting": "second compound 0.1 µM, first compound 1 µM", "result": 102, "unit": "%"}, {"measurement": "viability, T/C", "setting": "second compound 0.1 µM, first compound 3.16 µM", "result": 87.8, "unit": "%"}, {"measurement": "viability, T/C", "setting": "second compound 0.1 µM, first compound 10 µM", "result": 44, "unit": "%"}, {"measurement": "viability, T/C", "setting": "second compound 0.316 µM, first compound 0.0316 µM", "result": 108, "unit": "%"}, {"measurement": "viability, T/C", "setting": "second compound 0.316 µM, first compound 0.1 µM", "result": 117, "unit": "%"}, {"measurement": "viability, T/C", "setting": "second compound 0.316 µM, first compound 0.316 µM", "result": 110, "unit": "%"}, {"measurement": "viability, T/C", "setting": "second compound 0.316 µM, first compound 1 µM", "result": 105, "unit": "%"}, {"measurement": "viability, T/C", "setting": "second compound 0.316 µM, first compound 3.16 µM", "result": 82, "unit": "%"}, {"measurement": "viability, T/C", "setting": "second compound 0.316 µM, first compound 10 µM", "result": 25, "unit": "%"}, {"measurement": "viability, T/C", "setting": "second compound 1 µM, first compound 0.0316 µM", "result": 102, "unit": "%"}, {"measurement": "viability, T/C", "setting": "second compound 1 µM, first compound 0.1 µM", "result": 105, "unit": "%"}, {"measurement": "viability, T/C", "setting": "second compound 1 µM, first compound 0.316 µM", "result": 109, "unit": "%"}, {"measurement": "viability, T/C", "setting": "second compound 1 µM, first compound 1 µM", "result": 105, "unit": "%"}, {"measurement": "viability, T/C", "setting": "second compound 1 µM, first compound 3.16 µM", "result": 96.8, "unit": "%"}, {"measurement": "viability, T/C", "setting": "second compound 1 µM, first compound 10 µM", "result": 9.87, "unit": "%"}, {"measurement": "viability, T/C", "setting": "second compound 3.16 µM, first compound 0.0316 µM", "result": 108, "unit": "%"}, {"measurement": "viability, T/C", "setting": "second compound 3.16 µM, first compound 0.1 µM", "result": 115, "unit": "%"}, {"measurement": "viability, T/C", "setting": "second compound 3.16 µM, first compound 0.316 µM", "result": 94.3, "unit": "%"}, {"measurement": "viability, T/C", "setting": "second compound 3.16 µM, first compound 1 µM", "result": 101, "unit": "%"}, {"measurement": "viability, T/C", "setting": "second compound 3.16 µM, first compound 3.16 µM", "result": 83.7, "unit": "%"}, {"measurement": "viability, T/C", "setting": "second compound 3.16 µM, first compound 10 µM", "result": 13.2, "unit": "%"}, {"measurement": "viability, T/C", "setting": "second compound 10 µM, first compound 0.0316 µM", "result": 105, "unit": "%"}, {"measurement": "viability, T/C", "setting": "second compound 10 µM, first compound 0.1 µM", "result": 95.2, "unit": "%"}, {"measurement": "viability, T/C", "setting": "second compound 10 µM, first compound 0.316 µM", "result": 92.6, "unit": "%"}, {"measurement": "viability, T/C", "setting": "second compound 10 µM, first compound 1 µM", "result": 97.8, "unit": "%"}, {"measurement": "viability, T/C", "setting": "second compound 10 µM, first compound 3.16 µM", "result": 74.9, "unit": "%"}, {"measurement": "viability, T/C", "setting": "second compound 10 µM, first compound 10 µM", "result": 29.4, "unit": "%"}]}]}
